Experimental data: patent US8629293B2, “Process for the preparation of FE(III) chelates of N,N′-DI(2-hydroxybenzyl)-ethylenediamine-N,N′-diacetic acid and its derivatives” (Przedsiebiorstwo Produkcyjno-Consultingowe Adob SP. Z O.O. …, priority 2009, dated 2014)

Assays:
[1] = system: soybean (Glycine max L.) var. Stine 0480; assay: Fertilising of soya in plant growth climatic chamber: plant dry matter; assay type: in vivo
Protocol: (§1) The experiment was performed using the seeds of soybean (Glycine max L.) var. Stine 0480. A standard seed germination procedure was followed. Before starting the experiment, the seeds were thoroughly washed with water (30 minutes). The clean seeds were placed between two sheets of a cellulose paper soaked with water. The seeds germinated over two days in a climatic chamber at a temperature of 30° C. and a humidity of 60%, without access of light. After that time, the seedlings at a similar stage of development were placed on perforated trays floating over containers containing 10 L of the diluted nutrient solution for four days, followed by next three days using a solution containing micronutrients but without iron. Composition of the nutrient solution was: 1 mM Ca(NO3)2, 0.90 mM KNO3, 0.30 mM MgSO4, 0.10 mM KH2PO4, 2.5 μM MnSO4, 1.0 μM CuSO4, 10 μM ZnSO4, 1.0 μM NiCl2, 1.0 μM CoSO4, 115.5 μM Na2EDTA, 231 μM KOH, 35 μM NaCl, 10 μM H3BO3, 0.05 μM Na2MoO4 and 0.1 mM of N-(2-hydroxyethyl)piperazine-N′-(2-ethanesulfonic acid) sodium salt (HEPES). The pH value was adjusted to 7.5 using 1M KOH. 1-litre pots were filled with soil and sand in a volume ratio of 2:1. The test plants were transplanted into the thus-prepared pots, 3 plants per each pot. The experiment was carried out with adhering to the daily cycle of plant growth: 16 h of day time (30° C., 50% humidity) and 8 h of night time (25° C., 70% humidity).
(§2) Seven days after transplanting the plants into the pots, the symptoms of chlorosis were observed. The further part of the experiment was aimed at comparison of the effectiveness of performance of FeHBED with that of the commercially available FeEDDHA. For this purpose, the solutions of FeHBED and FeEDDHA were prepared, in which the iron isotope ^57Fe was used. The concentrations of ^57Fe in the doses were 0, 1.7, 3.4, 8.4, 16.8, 25.1 and 41.9 μmol of ^57Fe/kg of soil. Each dose was applied in duplicate. Additionally, a blank test (without iron) was performed for three pots.
Table 1 summarises the results of dry matter of above-ground sprouts (leaves and stems) for the plants gathered after every application of iron solutions of various concentration for two samplings.

[2] = system: soybean (Glycine max L.) var. Stine 0480; assay: Fertilising of soya in plant growth climatic chamber: SPAD index (leaves greenness); assay type: in vivo; details: for The SPAD index, 2nd level of foliage / The SPAD index, 3rd level of foliage: end of experiment
Protocol: as §1, §2
The SPAD index (a measure of leaves greenness) was determined every two days during the whole experiment.

| Structure (SMILES) | Root dry weight ([1]; dose 1.7 μmol 57Fe/kg of soil) | Sprout dry weight, 1 sampling ([1]; dose 1.7 μmol 57Fe/kg of soil) | Sprout dry weight, 2 sampling ([1]; dose 1.7 μmol 57Fe/kg of soil) | Root dry weight ([1]; dose 3.4 μmol 57Fe/kg of soil) | Sprout dry weight, 1 sampling ([1]; dose 3.4 μmol 57Fe/kg of soil) | Sprout dry weight, 2 sampling ([1]; dose 3.4 μmol 57Fe/kg of soil) | Root dry weight ([1]; dose 8.4 μmol 57Fe/kg of soil) | Sprout dry weight, 1 sampling ([1]; dose 8.4 μmol 57Fe/kg of soil) | Sprout dry weight, 2 sampling ([1]; dose 8.4 μmol 57Fe/kg of soil) | Root dry weight ([1]; dose 16.8 μmol 57Fe/kg of soil) | Sprout dry weight, 1 sampling ([1]; dose 16.8 μmol 57Fe/kg of soil) | Sprout dry weight, 2 sampling ([1]; dose 16.8 μmol 57Fe/kg of soil) | Root dry weight ([1]; dose 25.1 μmol 57Fe/kg of soil) | Sprout dry weight, 1 sampling ([1]; dose 25.1 μmol 57Fe/kg of soil) | Sprout dry weight, 2 sampling ([1]; dose 25.1 μmol 57Fe/kg of soil) | Root dry weight ([1]; dose 41.9 μmol 57Fe/kg of soil) | Sprout dry weight, 1 sampling ([1]; dose 41.9 μmol 57Fe/kg of soil) | Sprout dry weight, 2 sampling ([1]; dose 41.9 μmol 57Fe/kg of soil) | The SPAD index, 2nd level of foliage ([2]; 1.7 μmol of 57Fe/kg of soil) | The SPAD index, 3rd level of foliage ([2]; 1.7 μmol of 57Fe/kg of soil) | also measured |
| --- | --- | --- | --- | --- | --- | --- | --- | --- | --- | --- | --- | --- | --- | --- | --- | --- | --- | --- | --- | --- | --- |
| O=C(O)CN(CCN(CC(=O)O)Cc1ccccc1O)Cc1ccccc1O [HBED] | 0.33 g/3 plants | 0.73 g/plant | 2.20 g/plant | 0.53 g/3 plants | 0.79 g/plant | 2.83 g/plant | 0.56 g/3 plants | 0.91 g/plant | 2.62 g/plant | 0.51 g/3 plants | 0.72 g/plant | 3.19 g/plant | 0.43 g/3 plants | 0.92 g/plant | 2.66 g/plant | 0.49 g/3 plants | 0.79 g/plant | 2.63 g/plant | 29.58 | 34.09 | Sprout dry weights compared with o,oEDDHA/57Fe3+ ([1]; conclusion from Table 1, all doses): no evident difference in the sprout dry weights; SPAD index compared with o,oEDDHA/57Fe3+ ([2]; both levels of foliage): No significant differences in the values of the SPAD index; The SPAD index, 2nd level of foliage ([2]; 3.4 μmol of 57Fe/kg of soil): 28.75; The SPAD index, 3rd level of foliage ([2]; 3.4 μmol of 57Fe/kg of soil): 35.91; The SPAD index, 2nd level of foliage ([2]; 8.4 μmol of 57Fe/kg of soil): 42.50; The SPAD index, 3rd level of foliage ([2]; 8.4 μmol of 57Fe/kg of soil): 43.18; The SPAD index, 2nd level of foliage ([2]; 16.8 μmol of 57Fe/kg of soil): 27.92; The SPAD index, 3rd level of foliage ([2]; 16.8 μmol of 57Fe/kg of soil): 37.73; The SPAD index, 2nd level of foliage ([2]; 25.1 μmol of 57Fe/kg of soil): 27.92; The SPAD index, 3rd level of foliage ([2]; 25.1 μmol of 57Fe/kg of soil): 37.73; The SPAD index, 2nd level of foliage ([2]; 41.9 μmol of 57Fe/kg of soil): 29.17; The SPAD index, 3rd level of foliage ([2]; 41.9 μmol of 57Fe/kg of soil): 43.64 |
| O=C([O-])C(NCCNC(C(=O)[O-])c1ccccc1[O-])c1ccccc1[O-].[Fe+3] (centres unmarked) [o,oEDDHA, reference compound] | 0.44 g/3 plants | 0.88 g/plant | 2.08 g/plant | 0.51 g/3 plants | 0.79 g/plant | 2.92 g/plant | 0.49 g/3 plants | 0.87 g/plant | 2.03 g/plant | 0.53 g/3 plants | 0.84 g/plant | 2.56 g/plant | 0.59 g/3 plants | 0.81 g/plant | 2.73 g/plant | 0.49 g/3 plants | 0.86 g/plant | 3.20 g/plant | 37.92 | 43.18 | The SPAD index, 2nd level of foliage ([2]; 3.4 μmol of 57Fe/kg of soil): 34.58; The SPAD index, 3rd level of foliage ([2]; 3.4 μmol of 57Fe/kg of soil): 40.00; The SPAD index, 2nd level of foliage ([2]; 8.4 μmol of 57Fe/kg of soil): 31.67; The SPAD index, 3rd level of foliage ([2]; 8.4 μmol of 57Fe/kg of soil): 36.82; The SPAD index, 2nd level of foliage ([2]; 16.8 μmol of 57Fe/kg of soil): 32.92; The SPAD index, 3rd level of foliage ([2]; 16.8 μmol of 57Fe/kg of soil): 40.46; The SPAD index, 2nd level of foliage ([2]; 25.1 μmol of 57Fe/kg of soil): 37.08; The SPAD index, 3rd level of foliage ([2]; 25.1 μmol of 57Fe/kg of soil): 37.73; The SPAD index, 2nd level of foliage ([2]; 41.9 μmol of 57Fe/kg of soil): 38.75; The SPAD index, 3rd level of foliage ([2]; 41.9 μmol of 57Fe/kg of soil): 44.55 |
